# Laboratory results reported in article PMC9725750, “The clinical pharmacology of tafenoquine in the radical cure of Plasmodium vivax malaria: An individual patient data meta-analysis” (eLife, 2022).
# Legend:
# [1] = test system: blood MetHb; test: Blood methaemoglobin (MetHb) concentration on day 7 by pulse CO-oximeter; assay type: in vivo, human
# Description: All patients in the phase 1 trial and the three efficacy trials had frequent blood MetHb measurements taken using non-invasive signal extraction pulse CO-oximeter handheld machines. For the three efficacy trials, we excluded measurements taken at or after recurrence of vivax malaria. Because erroneous readings from the handheld oximeters can occur, we inspected visually the longitudinal MetHb curves for each patient. […] All patients from this site were excluded from the MetHb analysis ( n =91), resulting in a total of 9632 MetHb measurements across 746 P. vivax infected patients and 72 healthy volunteers.
# [2] = no reference given; cited from earlier work
# [3] = test system: Plasmodium vivax; test: Radical cure efficacy: any P. vivax recurrence within 4 months in patients, pooled DETECTIVE part 1/2 and GATHER (logistic regression and Emax models); assay type: in vivo, human
# Description: The primary endpoint for the main efficacy analyses was any P. vivax recurrence within 4 months. We chose the binary endpoint of any recurrence rather than the time to first recurrence because tafenoquine has both asexual stage antimalarial activity ([Fukuda et al., 2017]) and hypnozoiticidal activity. […] The choice of a particular cut-off for follow-up is thus a trade-off between sensitivity and specificity. Longer follow-up will increase the sensitivity of the endpoint (include more relapses) but decrease specificity (include more reinfections).
# For all predictors we fitted Bayesian mixed effects logistic regression models (random intercepts for study and study site), with adjustment for day 0 parasitaemia (log transformed). Logistic regression allows inference of the odds-ratio for recurrence for the predictive variable of interest, assuming a linear relationship between the predictive variable and log-odds for recurrence.
# For the mg/kg dose (the primary predictor of interest), the dose-response relationship was then assessed under a Bayesian Emax model, where the dose-dependent logit probability of recurrence is defined as: Emax(d,x)=α+βx+δd^k/d^k+γ^k,
# The Emax model was also fitted with random intercepts for study and study site.
# To determine the main predictors of recurrence, we fitted a multivariable penalised Bayesian logistic regression model. This included the following variables as predictors: the tafenoquine mg/kg dose; the plasma tafenoquine AUC[0,∞); the plasma tafenoquine Cmax; the day 7 MetHb concentration (%); the terminal elimination half-life t1/2; and the baseline parasite density. The model included random intercept terms for each study and study site. […] To avoid convergence issues resulting from the co-linearity of the predictors, the prior on all non-hierarchical coefficients was set to a Normal(0,0.5). This prior effectively shrinks the regression coefficients towards zero. It can be interpreted as follows: plausible odds-ratios for recurrence for one standard deviation change for each of the fixed effect predictors lie approximately between 0.38 and 2.7).
# In a priori sensitivity analyses, all recurrences up until 6 months were included as both binary and time to event outcomes. The time to first recurrence was defined as a P. vivax episode between day 7 and day 180 with right censoring at the last recorded visit. We also re-ran the same models in patients who received a 300 mg single dose of tafenoquine only (i.e. the current recommended treatment).
structure (smiles),measurement,setting,value
CCCCN(CCCC)CC(O)c1cc(Cl)cc2c1-c1ccc(Cl)cc1/C2=C/c1ccc(Cl)cc1 (stereo not drawn) [lumefantrine],reduction in day 7 methaemoglobin per ten-fold increase in day 7 plasma lumefantrine concentration,"[1]; healthy volunteers randomised to tafenoquine + AL, 95% CI 3 to 62%",40%
Clc1ccc2c(N3CCN(CCCN4CCN(c5ccnc6cc(Cl)ccc56)CC4)CC3)ccnc2c1 [piperaquine],association of day 7 piperaquine concentration with day 7 MetHb (reduction),"[1]; healthy volunteers, tafenoquine + DHA-PQP, no clear association, 95% CI –27 to 72%",40%
COc1cc(NC(C)CCCN)c2ncccc2c1 (stereo not drawn) [primaquine],terminal elimination half-life,[2],5 h
same,posterior probability that the recurrence was more likely following primaquine,[3]; 3.5 mg/kg primaquine vs 5 mg/kg tafenoquine,0.73
same,Recurrence at 4 months,"[3]; PQ low-dose 15 mg base daily for 14 days + chloroquine, n=257",57 (22.2) total number (%)
same,mean probability of recurrence at 4 months,"[3]; logistic model estimate, following 3.5 mg/kg primaquine, 95% CI 0.10–0.26",0.17
